In ChEMBL document CHEMBL5143714, “Discovery of BMS-986339, a Pharmacologically Differentiated Farnesoid X Receptor Agonist for the Treatment of Nonalcoholic Steatohepatitis” (J Med Chem, 2022):

What was measured:
[1] = target: T1, Nuclear receptor subfamily 1 group I member 2 (Homo sapiens, UniProt O75469); test: Transactivation of PXR (unknown origin); assay type: ADME
T1 sequence (O75469 whole entry): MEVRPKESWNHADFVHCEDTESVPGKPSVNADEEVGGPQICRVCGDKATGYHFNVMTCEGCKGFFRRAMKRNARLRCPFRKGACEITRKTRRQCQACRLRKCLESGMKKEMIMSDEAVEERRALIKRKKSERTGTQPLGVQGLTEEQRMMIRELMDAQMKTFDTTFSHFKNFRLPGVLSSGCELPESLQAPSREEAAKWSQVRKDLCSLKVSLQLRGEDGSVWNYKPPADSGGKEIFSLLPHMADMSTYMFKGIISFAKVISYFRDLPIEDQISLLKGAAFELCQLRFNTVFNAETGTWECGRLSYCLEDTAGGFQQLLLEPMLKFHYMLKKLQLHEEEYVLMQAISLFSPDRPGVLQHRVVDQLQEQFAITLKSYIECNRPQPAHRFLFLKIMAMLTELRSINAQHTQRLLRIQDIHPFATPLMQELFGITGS

[2] = Metabolic stability in mouse liver microsome assessed as parent compound remaining at […] measured after 10 mins; assay type: ADME; details: liver microsomes, read-out: Stability
[3] = Metabolic stability in human liver microsome assessed as parent compound remaining at […] measured after 10 mins; assay type: ADME; details: liver microsomes, read-out: Stability
Cytochrome P450 2C19 = Cytochrome P450 2C19 (Homo sapiens, UniProt P33261); test: Inhibition of recombinant CYP2C19 (unknown origin) using fluorogenic substrate preincubated for 15 min followed by NADPH addition measured after 2 hrs by fluorescence method; assay type: ADME
Chain of Cytochrome P450 2C19 (P33261 whole entry): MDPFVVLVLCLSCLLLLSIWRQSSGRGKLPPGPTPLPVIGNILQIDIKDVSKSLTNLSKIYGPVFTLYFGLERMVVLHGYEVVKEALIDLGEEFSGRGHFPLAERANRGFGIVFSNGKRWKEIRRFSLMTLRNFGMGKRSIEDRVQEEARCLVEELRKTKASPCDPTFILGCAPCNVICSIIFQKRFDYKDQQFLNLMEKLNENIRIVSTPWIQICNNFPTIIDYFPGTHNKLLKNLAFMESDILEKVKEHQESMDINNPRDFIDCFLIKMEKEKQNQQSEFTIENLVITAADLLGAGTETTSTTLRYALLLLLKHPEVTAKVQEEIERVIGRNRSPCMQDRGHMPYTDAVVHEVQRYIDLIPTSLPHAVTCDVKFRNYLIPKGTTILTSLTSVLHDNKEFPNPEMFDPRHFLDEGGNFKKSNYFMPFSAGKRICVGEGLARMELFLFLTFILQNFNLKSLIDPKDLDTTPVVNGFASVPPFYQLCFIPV

[4] = target: T1, Nuclear receptor subfamily 1 group I member 2; test: Transactivation of PXR (unknown origin) relative to refampicin; assay type: ADME
Cytochrome P450 2C9 = Cytochrome P450 2C9 (Homo sapiens, UniProt P11712); test: Inhibition of recombinant CYP2C9 (unknown origin) using fluorogenic substrate preincubated for 15 min followed by NADPH addition measured after 2 hrs by fluorescence method; assay type: ADME
Chain of Cytochrome P450 2C9 (P11712 whole entry, the tested form may be a part): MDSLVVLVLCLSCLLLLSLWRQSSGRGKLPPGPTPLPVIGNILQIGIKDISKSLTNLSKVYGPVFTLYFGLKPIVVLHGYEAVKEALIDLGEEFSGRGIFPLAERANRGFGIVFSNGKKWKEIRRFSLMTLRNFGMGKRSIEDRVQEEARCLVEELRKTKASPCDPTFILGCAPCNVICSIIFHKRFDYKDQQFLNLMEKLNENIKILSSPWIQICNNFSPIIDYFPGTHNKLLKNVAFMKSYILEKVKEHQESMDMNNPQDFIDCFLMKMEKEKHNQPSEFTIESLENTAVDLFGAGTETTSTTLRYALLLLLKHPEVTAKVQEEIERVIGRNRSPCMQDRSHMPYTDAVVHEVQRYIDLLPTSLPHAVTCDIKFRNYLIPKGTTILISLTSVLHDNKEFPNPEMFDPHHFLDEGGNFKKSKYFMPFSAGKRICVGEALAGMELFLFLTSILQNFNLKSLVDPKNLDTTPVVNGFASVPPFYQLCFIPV

Bile acid receptor = target: T2, Bile acid receptor (Homo sapiens, UniProt Q96RI1); test: Agonist activity at Gal4-fused human FXR in HEK293 cells incubated for 15 min by luciferase reporter assay; assay type: cell-based
T2 sequence (Q96RI1 whole entry): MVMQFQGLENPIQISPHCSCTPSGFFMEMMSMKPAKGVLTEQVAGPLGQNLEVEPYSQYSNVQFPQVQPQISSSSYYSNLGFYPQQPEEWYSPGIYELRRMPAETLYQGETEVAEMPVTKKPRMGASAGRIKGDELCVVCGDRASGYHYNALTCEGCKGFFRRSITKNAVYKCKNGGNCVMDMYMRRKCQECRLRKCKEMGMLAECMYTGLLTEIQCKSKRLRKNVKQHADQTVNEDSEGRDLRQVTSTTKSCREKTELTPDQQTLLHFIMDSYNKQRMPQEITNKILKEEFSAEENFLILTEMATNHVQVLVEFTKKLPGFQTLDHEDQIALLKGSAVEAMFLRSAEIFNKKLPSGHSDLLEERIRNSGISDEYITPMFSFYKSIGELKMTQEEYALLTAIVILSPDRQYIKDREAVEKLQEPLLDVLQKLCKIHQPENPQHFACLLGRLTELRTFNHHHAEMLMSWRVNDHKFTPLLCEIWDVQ

[5] = Metabolic stability in rat liver microsome assessed as parent compound remaining at […] measured after 10 mins; assay type: ADME; details: liver microsomes, read-out: Stability
[6] = Metabolic stability in mouse liver microsome assessed as parent compound remaining at 1 mg/mL measured after 10 mins; assay type: ADME; details: liver microsomes, read-out: Stability
[7] = Metabolic stability in rat liver microsome assessed as parent compound remaining at 1 mg/mL measured after 10 mins; assay type: ADME; details: liver microsomes, read-out: Stability
[8] = Metabolic stability in human liver microsome assessed as parent compound remaining at 1 mg/mL measured after 10 mins; assay type: ADME; details: liver microsomes, read-out: Stability

| EC50 [1] [nM] | remaining at 10 min [2] [%] | remaining at 10 min [3] [%] | IC50 (Cytochrome P450 2C19) [nM] | Emax [4] [%] | IC50 (Cytochrome P450 2C9) [nM] | EC50 (Bile acid receptor) [nM] | remaining at 10 min [5] [%] | remaining at 10 min [6] [%] | remaining at 10 min, 1 mg/mL [7] [%] | remaining at 10 min [8] [%] | Structure (SMILES) |
| --- | --- | --- | --- | --- | --- | --- | --- | --- | --- | --- | --- |
| 50000 | 86 | 69 | 10000 | 10 | 1000 | 152 | 73 | – | – | – | CCOc1ncc(-c2cccc(N(CC34CCC(c5noc(C(C)(C)C)n5)(CC3)CC4)C(=O)[C@H]3C[C@](O)(C(F)(F)F)C3)c2)cn1 |
| – | – | – | – | – | – | 57 | – | 4 | 31 | 6 | COC(=O)/C=C/c1cccc(N(CC23CCC(c4nc(C)no4)(CC2)CC3)C(=O)C2CCCCC2)c1 |
| – | – | – | – | – | – | 919 | – | – | – | – | CCOC(=O)c1nc(-c2cccc(N(CC34CCC(c5nc(C6CC6)no5)(CC3)CC4)C(=O)C3CCCCC3)c2)cs1 |
| – | – | – | – | – | – | 142 | – | 35 | 8 | 60 | COC(=O)/C=C/c1cccc(N(CC23CCC(c4ccc(OC)cc4)(CC2)CC3)C(=O)C2CCCCC2)c1 |
| – | – | – | – | – | – | 299 | – | – | – | – | COC(=O)/C=C/c1cccc(N(CC23CCC(c4ccc(N5CCCC5)cc4)(CC2)CC3)C(=O)C2CCCCC2)c1 |
| 50000 | 58 | 94 | 8000 | 9 | 2000 | – | 79 | – | – | – | CCOc1ccc(-c2cccc(N(CC34CCC(c5noc(C(C)(C)C)n5)(CC3)CC4)C(=O)C34CC(F)(C3)C4)c2)cn1 |
| 50000 | 99 | 100 | 9000 | 13 | 5000 | 25 | 100 | – | – | – | CC(C)(O)c1ccc(-c2cccc(N(CC34CCC(c5noc(C(C)(C)F)n5)(CC3)CC4)C(=O)[C@H]3C[C@@](C)(O)C3)c2)cc1 |
| – | – | – | – | – | – | 111 | – | – | – | – | COC(=O)/C=C/c1cccc(N(CC23CCC(c4ccc(C5CC5)cc4)(CC2)CC3)C(=O)C2CCCCC2)c1 |
| 50000 | 100 | 100 | 20000 | 11 | 20000 | 70 | 86 | – | – | – | CC(C)(C)c1noc(C23CCC(CN(C(=O)C45CC(F)(C4)C5)c4cccc(-c5nc(C6CC6)no5)c4)(CC2)CC3)n1 |
| 50000 | 92 | 97 | 9000 | 19 | 3000 | 29 | 81 | – | – | – | CC(C)(C)c1nc(C23CCC(CN(C(=O)C45CC(F)(C4)C5)c4cccc(-c5nc(C6CC6)no5)c4)(CC2)CC3)no1 |
| – | – | – | – | – | – | 118 | – | – | – | – | COC(=O)/C=C/c1cccc(N(CC23CCC(c4ccc(N5CCOCC5)cc4)(CC2)CC3)C(=O)C2CCCCC2)c1 |
| – | – | – | – | – | – | 59 | – | – | – | – | CCOc1cc(-c2cccc(N(CC34CCC(c5nc(C6CC6)no5)(CC3)CC4)C(=O)C3CCCCC3)c2)no1 |
| 4000 | 100 | 100 | 8000 | 48 | 8000 | 1090 | 10 | – | – | – | O=C(C1CCS(=O)(=O)CC1)N(CC12CCC(c3nc(C4CC4)no3)(CC1)CC2)c1cccc(-c2nc(C3CC3)no2)c1 |
| 6000 | 34 | 38 | 20000 | 21 | 20000 | 44 | 4 | – | – | – | O=C(C1CCCCC1)N(CC12CCC(c3nc(C4CC4)no3)(CC1)CC2)c1cccc(-c2nc(C3CC3)no2)c1 |
| – | 52 | 76 | 1000 | – | – | 45 | 60 | – | – | – | CC(C)(C)c1nc(C23CCC(CN(C(=O)C45CC(F)(C4)C5)c4cccc(-c5nnc(C6CC6)o5)c4)(CC2)CC3)no1 |
| 50000 | 77 | 100 | 6000 | 9 | 1000 | 41 | 80 | – | – | – | CCOc1ncc(-c2cccc(N(CC34CCC(c5noc(C(C)(C)C)n5)(CC3)CC4)C(=O)C34CC(F)(C3)C4)c2)cn1 |
| 1500 | 84 | 64 | 9000 | 37 | 1000 | – | 44 | – | – | – | CCOc1ncc(-c2cccc(N(CC34CCC(c5noc(C(C)(C)C)n5)(CC3)CC4)C(=O)[C@H]3C[C@@](C)(O)C3)c2)cn1 |
| 2000 | 84 | 88 | 7000 | 28 | 2000 | 170 | 64 | – | – | – | CCOc1ncc(-c2cccc(N(CC34CCC(c5noc(C(F)F)n5)(CC3)CC4)C(=O)C34CC(F)(C3)C4)c2)cn1 |
| – | – | – | – | – | – | 95 | – | – | – | – | COc1cc(-c2cccc(N(CC34CCC(c5nc(C6CC6)no5)(CC3)CC4)C(=O)C3CCCCC3)c2)ccn1 |
| – | 8 | 86 | 20000 | – | 1000 | 114 | 0 | – | – | – | O=C(C1CCOCC1)N(CC12CCC(c3nc(C4CC4)no3)(CC1)CC2)c1cccc(-c2nc(C3CC3)no2)c1 |
| 1000 | 100 | 100 | 2000 | 25 | 2000 | – | 99 | – | – | – | O=C(N(CC12CCC(c3nc(C4CC4)no3)(CC1)CC2)c1cccc(-c2nc(C3CC3)no2)c1)C12CC(F)(C1)C2 |
| 8000 | 82 | 100 | 300 | 35 | 20000 | 149 | 23 | – | – | – | O=C(C1CCC(F)(F)CC1)N(CC12CCC(c3nc(C4CC4)no3)(CC1)CC2)c1cccc(-c2nc(C3CC3)no2)c1 |
| – | – | – | – | – | – | 92 | – | – | – | – | COc1cccc(-c2cccc(N(CC34CCC(c5nc(C6CC6)no5)(CC3)CC4)C(=O)C3CCCCC3)c2)c1 |
| 50000 | 71 | 98 | 13000 | 11 | 20000 | 1640 | 37 | – | – | – | CN1CCC(C(=O)N(CC23CCC(c4nc(C5CC5)no4)(CC2)CC3)c2cccc(-c3nc(C4CC4)no3)c2)CC1 |
| 1000 | 100 | 98 | 17000 | 62 | 1000 | – | 72 | – | – | – | O=C(C1CC(F)(F)C1)N(CC12CCC(c3nc(C4CC4)no3)(CC1)CC2)c1cccc(-c2nc(C3CC3)no2)c1 |
